Reference: article PMC4839570, “Novel Anthra[1,2-c][1,2,5]Thiadiazole-6,11-Diones as Promising Anticancer Lead Compounds: Biological Evaluation, Characterization & Molecular Targets Determination” (PLoS ONE, 2016)
Like-named read-outs stand apart in the source and are kept apart here.

How the values were obtained:
SF-295 [1] = assay: NCI-60 cytotoxicity screen; assay type: cell-based
MCF7 = assay: NCI-60 cytotoxicity screen; assay type: cell-based
MOLT-4 = assay: NCI-60 cytotoxicity screen; assay type: cell-based
SF-268 = assay: NCI-60 cytotoxicity screen; assay type: cell-based
SNB-75 [2] = assay: JFCR-39 cytotoxicity screen; assay type: cell-based
ST-4 = assay: JFCR-39 cytotoxicity screen; assay type: cell-based
[3] = tested on: normal cardiac myoblast H9c2 cells; conditions: rat
Procedure: Briefly, 96 well microtiter plates were inoculated with the specified human cancer cell lines in RPMI 1640 medium containing 5% fetal bovine serum and 2 mM L-glutamine at the specified plating densities. The microtiter plates were incubated at 37°C, 5% CO2, and 100% relative humidity for 24 h. The test compounds were solubilized in DMSO at 400-fold the desired final maximum test concentration, diluted with complete medium containing gentamicin and added to the wells of the microtiter plates to achieve the final desired compound concentration, then incubated for an additional 48 h at the same incubation conditions. The media were removed, the cells were fixed then stained with sulforhodamine B and the unbound dye was removed by washing with acetic acid. The bound dye was resolubilized with trizma base and the absorbance at 515 nm was measured. Cells were stained with the WST-1 cell proliferation reagent instead of sulforhodamine B in some experiments and absorbance were measured at 440 nm. The three dose response parameters GI50, TGI and LC50 were calculated for each experimental compound as follows [48]: For values where Ti ≥ Tz the formula is [ (Ti-Tz) / (C-Tz)] x 100 For values where Ti < Tz the formula is [ (Ti-Tz) / Tz] x 100 Where Ti is the absorbance of the solubilized Sulforhodamine B (SRB) (representing the number of cells) of the five different concentrations of the compound used in the test, Tz is the absorbance of the SRB at time zero, and C is the absorbance of the SRB of the control growth.

MKN74 = assay: JFCR-39 cytotoxicity screen; assay type: cell-based
MDA-MB-435 = assay: NCI-60 cytotoxicity screen; assay type: cell-based
MALME-3M = assay: NCI-60 cytotoxicity screen; assay type: cell-based
MKN7 = assay: JFCR-39 cytotoxicity screen; assay type: cell-based
OVCAR-8 = assay: NCI-60 cytotoxicity screen; assay type: cell-based
HCT-15 = assay: JFCR-39 cytotoxicity screen; assay type: cell-based
NCI-H23 = assay: NCI-60 cytotoxicity screen; assay type: cell-based
M14 = assay: NCI-60 cytotoxicity screen; assay type: cell-based
MDA-MB-468 = assay: NCI-60 cytotoxicity screen
U251 = assay: NCI-60 cytotoxicity screen; assay type: cell-based
HCT-116 = assay: JFCR-39 cytotoxicity screen; assay type: cell-based
K-562 = assay: NCI-60 cytotoxicity screen; assay type: cell-based; conditions: Homo sapiens, K562, Fig 7, read-out: mean log10 of the GI50 values (converted)
SF-539 = assay: JFCR-39 cytotoxicity screen; assay type: cell-based
HL-60(TB) = assay: NCI-60 cytotoxicity screen; assay type: cell-based
SR = assay: NCI-60 cytotoxicity screen; assay type: cell-based
SNB-75 [4] = assay: NCI-60 cytotoxicity screen; assay type: cell-based
PC-3 [5] = assay: JFCR-39 cytotoxicity screen; assay type: cell-based
SF-295 [6] = assay: JFCR-39 cytotoxicity screen; assay type: cell-based
NCI-H226 = assay: NCI-60 cytotoxicity screen; assay type: cell-based
EKVX = assay: NCI-60 cytotoxicity screen; assay type: cell-based
MCF-7 = assay: JFCR-39 cytotoxicity screen; assay type: cell-based
HBC-5 = assay: JFCR-39 cytotoxicity screen; assay type: cell-based
786-0 = assay: NCI-60 cytotoxicity screen; assay type: cell-based
PC-3 [7] = assay: NCI-60 cytotoxicity screen; assay type: cell-based
SNB-78 = assay: JFCR-39 cytotoxicity screen; assay type: cell-based
[8] = Homo sapiens, Fig 7, read-out: mean log10 of the GI50 values (converted)
[9] = Homo sapiens, five-dose, read-out: GI50
[10] = Homo sapiens, five-dose, read-out: LC50 (the source's name)
[11] = Homo sapiens, read-out: LC50 (the source's name)

Structure (SMILES): O=C1c2ccccc2C(=O)c2c1cc(Cl)c1nsnc21 [NSC757963]
- GI50 (SF-295 [1]; [8]): 17.4 µM
- GI50 (SF-295 [1]; [9]): 16.6 µM
- CC50 (SF-295 [1]; [10]): 62.9 µM
- TGI (SF-295 [1]; five-dose): 32.3 µM
- GI50 (MCF7; [8]): 1.7 µM
- GI50 (MCF7; [9]): 1.78 µM
- CC50 (MCF7; [10]): 10.4 µM
- TGI (MCF7; five-dose): 4.24 µM
- GI50 (MOLT-4; [8]): 0.437 µM
- GI50 (MOLT-4; [9]): 0.46 µM
- CC50 (MOLT-4; [10]): > 100 µM
- TGI (MOLT-4; five-dose): 26.7 µM
- GI50 (SF-268; [8]): 1.95 µM
- GI50 (SF-268; [9]): 2.07 µM
- CC50 (SF-268; [10]): 13.9 µM
- TGI (SF-268; five-dose): 4.83 µM
- TGI (SNB-75 [2]): 3.8 µM
- GI50 (SNB-75 [2]; Homo sapiens): 2.1 µM
- CC50 (SNB-75 [2]; [11]): 6.8 µM
- TGI (ST-4): 3.9 µM
- GI50 (ST-4; Homo sapiens): 2 µM
- CC50 (ST-4; [11]): 7.4 µM
- cytotoxicity towards normal cardiac myoblast H9c2 cells [3]: significantly less cytotoxic effects on H9c2 cells at higher doses than doxorubicin
- TGI (MKN74): 4.2 µM
- GI50 (MKN74; Homo sapiens, MKN-74): 2.1 µM
- CC50 (MKN74; Homo sapiens, MKN-74, read-out: LC50 (the source's name)): 8.4 µM
- GI50 (MDA-MB-435; [8]): 1.95 µM
- GI50 (MDA-MB-435; [9]): 1.99 µM
- CC50 (MDA-MB-435; [10]): 7.49 µM
- TGI (MDA-MB-435; five-dose): 3.86 µM
- GI50 (MALME-3M; [8]): 12.6 µM
- GI50 (MALME-3M; [9]): 15.9 µM
- CC50 (MALME-3M; [10]): 59.1 µM
- TGI (MALME-3M; five-dose): 30.7 µM
- TGI (MKN7): 3.6 µM
- GI50 (MKN7; Homo sapiens, MKN-7): 1.7 µM
- CC50 (MKN7; Homo sapiens, MKN-7, read-out: LC50 (the source's name)): 7.4 µM
- GI50 (OVCAR-8; [8]): 1.32 µM
- GI50 (OVCAR-8; [9]): 2.39 µM
- CC50 (OVCAR-8; [10]): > 100 µM
- TGI (OVCAR-8; five-dose): 5.19 µM
- TGI (HCT-15): 3.9 µM
- GI50 (HCT-15; Homo sapiens): 1.9 µM
- CC50 (HCT-15; [11]): 7.9 µM
- GI50 (NCI-H23; [8]): 3.63 µM
- GI50 (NCI-H23; [9]): 3.62 µM
- CC50 (NCI-H23; [10]): 74.6 µM
- TGI (NCI-H23; five-dose): 17.2 µM
- GI50 (M14; [8]): 15.1 µM
- GI50 (M14; [9]): 17 µM
- CC50 (M14; [10]): 59.7 µM
- TGI (M14; five-dose): 31.9 µM
- GI50 (MDA-MB-468; Homo sapiens, MDA-MB-468): 1.38 µM
- CC50 (MDA-MB-468; Homo sapiens, MDA-MB-468, read-out: LC50): 6.25 µM
- inhibition at 10 µM (MDA-MB-468; Homo sapiens, MDA-MB-468, read-out: growth inhibition): 88.3%
- GI50 (MDA-MB-468; Homo sapiens, MDA-MB-468, read-out: mean log10 of the GI50 values (converted)): 0.631 µM
- TGI (MDA-MB-468; MDA-MB-468, five-dose): 2.93 µM
- GI50 (U251; Homo sapiens, U-251, Fig 7, read-out: mean log10 of the GI50 values (converted)): 2.34 µM
- GI50 (U251; Homo sapiens, U-251, five-dose, read-out: GI50): 3.29 µM
- CC50 (U251; Homo sapiens, U-251, five-dose, read-out: LC50 (the source's name)): 32.7 µM
- TGI (U251; five-dose): 10.4 µM
- TGI (HCT-116): 4.0 µM
- GI50 (HCT-116; Homo sapiens): 1.9 µM
- CC50 (HCT-116; [11]): 8.3 µM
- GI50 (K-562): 0.759 µM
- TGI (SF-539): 3.4 µM
- GI50 (SF-539; Homo sapiens): 1.9 µM
- CC50 (SF-539; [11]): 6.4 µM
- GI50 (HL-60(TB); [8]): 1.05 µM
- GI50 (HL-60(TB); [9]): 0.42 µM
- CC50 (HL-60(TB); [10]): > 100 µM
- TGI (HL-60(TB); five-dose): 2.22 µM
- GI50 (SR; [8]): 1.82 µM
- GI50 (SR; [9]): 2.64 µM
- CC50 (SR; [10]): > 100 µM
- TGI (SR; five-dose): >100 µM
- GI50 (SNB-75 [4]; [8]): 1.91 µM
- GI50 (SNB-75 [4]; [9]): 2.17 µM
- CC50 (SNB-75 [4]; [10]): 69.1 µM
- TGI (SNB-75 [4]; five-dose): 6.89 µM
- TGI (PC-3 [5]): 3.2 µM
- GI50 (PC-3 [5]; Homo sapiens): 1.6 µM
- CC50 (PC-3 [5]; [11]): 6.5 µM
- TGI (SF-295 [6]): 3.5 µM
- GI50 (SF-295 [6]; Homo sapiens): 1.9 µM
- CC50 (SF-295 [6]; [11]): 6.5 µM
- GI50 (NCI-H226; [8]): 16.2 µM
- LC50 (concentration killing 50% of cells) (NCI-H226; Homo sapiens, five-dose): 53.9 µM
- GI50 (NCI-H226; [9]): 14.9 µM
- TGI (NCI-H226; five-dose): 28.3 µM
- GI50 (EKVX; [8]): 10.5 µM
- GI50 (EKVX; [9]): 11 µM
- CC50 (EKVX; [10]): 48.7 µM
- TGI (EKVX; five-dose): 23.2 µM
- TGI (MCF-7): 3.9 µM
- GI50 (MCF-7; Homo sapiens, MCF7): 1.8 µM
- CC50 (MCF-7; Homo sapiens, MCF7, read-out: LC50 (the source's name)): 8 µM
- TGI (HBC-5): 4.1 µM
- GI50 (HBC-5; Homo sapiens, HBC5): 2.1 µM
- CC50 (HBC-5; Homo sapiens, HBC5, read-out: LC50 (the source's name)): 8.3 µM
- TGI (786-0; 786–0, five-dose): 31.8 µM
- GI50 (786-0; Homo sapiens, 786-0, Fig 7, read-out: mean log10 of the GI50 values (converted)): 6.61 µM
- GI50 (786-0; Homo sapiens, 786–0, five-dose, read-out: GI50): 17.2 µM
- CC50 (786-0; Homo sapiens, 786–0, five-dose, read-out: LC50 (the source's name)): 58.8 µM
- GI50 (PC-3 [7]; [8]): 2.57 µM
- GI50 (PC-3 [7]; [9]): 2.85 µM
- CC50 (PC-3 [7]; [10]): > 100 µM
- TGI (PC-3 [7]; five-dose): 30.2 µM
- TGI (SNB-78): 4.1 µM
- GI50 (SNB-78; Homo sapiens): 2.2 µM
- CC50 (SNB-78; [11]): 7.9 µM
